Measured values published in article PMC8219695 (Nature Communications, 2021).
Several values for one entry are separate records, joined by “and”; a condition that tells them apart may be missing. Equal values may be shown once.

What was measured:
[1] = tested on: CD1 mice; test: Tail-flick antinociception in CD1 mice; format: in vivo, mouse; conditions: sc; for Tail flick (%MPE), average / Tail flick latency in secs, Av / Tail flick latency in secs, av: average of 8 animals; for Tail flick (%MPE) / Tail flick latency: individual animals
[2] = biological target: T1, mMOR (Mus musculus, UniProt P42866); test: CAMYEL BRET cAMP agonist assay at mMOR; format: cell-based; conditions: mMOR, single replicates, source data Fig 6b
T1 construct: signal peptide (heterologous, not specified) (N); expressed in transfected cells; pcDNA3.1(+) construct made in house
T1 sequence (P42866 whole entry): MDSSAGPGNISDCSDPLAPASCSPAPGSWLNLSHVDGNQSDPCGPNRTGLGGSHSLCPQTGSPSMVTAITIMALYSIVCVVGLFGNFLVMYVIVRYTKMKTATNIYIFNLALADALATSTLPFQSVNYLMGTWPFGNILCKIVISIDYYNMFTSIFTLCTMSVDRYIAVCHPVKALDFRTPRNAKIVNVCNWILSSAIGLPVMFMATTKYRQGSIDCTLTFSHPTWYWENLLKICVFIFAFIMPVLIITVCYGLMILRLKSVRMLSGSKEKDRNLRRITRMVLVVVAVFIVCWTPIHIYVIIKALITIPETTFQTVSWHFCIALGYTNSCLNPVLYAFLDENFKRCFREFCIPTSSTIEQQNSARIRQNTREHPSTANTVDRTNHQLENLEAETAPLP

[3] = biological target: T2, hMOR (Homo sapiens, UniProt P35372); test: CAMYEL BRET cAMP agonist assay at hMOR; format: cell-based; conditions: hMOR, single replicates, source data Fig 6c
T2 construct: expressed in transfected cells; plasmid a gift from Dr. Nevin Lambert
T2 sequence (P35372 whole entry): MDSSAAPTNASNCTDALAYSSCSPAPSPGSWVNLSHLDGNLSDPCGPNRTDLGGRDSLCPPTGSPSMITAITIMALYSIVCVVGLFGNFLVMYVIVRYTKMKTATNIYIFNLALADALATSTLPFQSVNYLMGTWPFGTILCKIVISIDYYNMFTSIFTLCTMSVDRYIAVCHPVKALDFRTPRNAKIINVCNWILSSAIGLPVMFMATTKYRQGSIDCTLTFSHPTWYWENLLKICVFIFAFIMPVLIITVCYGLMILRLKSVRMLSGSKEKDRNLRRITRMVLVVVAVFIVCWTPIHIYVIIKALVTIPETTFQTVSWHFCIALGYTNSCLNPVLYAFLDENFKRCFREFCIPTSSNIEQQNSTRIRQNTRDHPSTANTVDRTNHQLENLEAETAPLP

[4] = biological target: T1, mMOR; test: BRET-based Nb33 recruitment assay at mMOR; format: cell-based; conditions: single replicates, source data Fig 7a
[5] = Log[drug] (M) -13, cAMP inhibition as % of DAMGO

Compound: CC[C@@H]1CN2CC[C@@]3(O)C(=Nc4cc(Cl)cc(OC)c43)[C@@H]2C[C@@H]1/C(=C\OC)C(=O)OC [11-Cl-7OH]
- %MPE ([1]; 5 mg/kg, 15 min): 2.8 %MPE
- Tail flick (%MPE), average ([1]; 5 mg/kg, 15 min): 2.3 %MPE
- Tail flick latency in secs, Av ([1]; 5 mg/kg, 15 min): 3.3 s
- Tail flick (%MPE) ([1]; 5 mg/kg, 15 min): -5.1 %MPE and -18.5 %MPE and 0.7 %MPE and 1.6 %MPE (2×) and 16.4 %MPE and 17.5 %MPE and 4.0 %MPE
- Tail flick latency ([1]; 5 mg/kg, 15 min): 2.75 secs and 2.65 secs and 2.95 secs and 3.7 secs (2×) and 4.4 secs and 3.4 secs and 2.8 secs
- %MPE ([1]; 5 mg/kg, 30 min): 1.6 %MPE
- Tail flick (%MPE), average ([1]; 5 mg/kg, 30 min): 1.3 %MPE
- Tail flick latency in secs, Av ([1]; 5 mg/kg, 30 min): 3.2 s
- Tail flick (%MPE) ([1]; 5 mg/kg, 30 min): -2.2 %MPE and -3.2 %MPE and 0.7 %MPE and -10.9 %MPE and 7.5 %MPE and 4.7 %MPE and 10.0 %MPE and 4.0 %MPE
- Tail flick latency ([1]; 5 mg/kg, 30 min): 2.95 secs (2×) and 3.6 secs and 2.9 secs and 3.8 secs and 3.9 secs and 2.8 secs (2×)
- %MPE ([1]; 5 mg/kg, 60 min): 3.3 %MPE
- Tail flick latency in secs, Av ([1]; 5 mg/kg, 60 min): 3.3 s
- Tail flick (%MPE) ([1]; 5 mg/kg, 60 min): -2.9 %MPE and -16.1 %MPE and 7.0 %MPE and -1.6 %MPE and 1.5 %MPE and -10.9 %MPE and 21.3 %MPE and 20.0 %MPE
- Tail flick latency ([1]; 5 mg/kg, 60 min): 2.9 secs (2×) and 2.8 secs and 3.4 secs (2×) and 3.5 secs and 3.7 secs and 4 secs
- %MPE ([1]; 25 mg/kg, 15 min): 2.83 %MPE
- Tail flick (%MPE), average ([1]; 25 mg/kg, 15 min): 2.6 %MPE
- Tail flick latency in secs, av ([1]; 25 mg/kg, 15 min): 2.9 s
- Tail flick (%MPE) ([1]; 25 mg/kg, 15 min): 12.5 %MPE and -0.8 %MPE and 0.7 %MPE and -0.7 %MPE (2×) and 10.4 %MPE and -3.5 %MPE and 2.7 %MPE
- Tail flick latency ([1]; 25 mg/kg, 15 min): 3.0 secs (2×) and 3.5 secs and 2.8 secs and 2.6 secs (2×) and 3.1 secs and 2.9 secs
- %MPE ([1]; 25 mg/kg, 30 min): 5.91 %MPE
- Tail flick (%MPE), average ([1]; 25 mg/kg, 30 min): 5.5 %MPE
- Tail flick latency in secs, av ([1]; 25 mg/kg, 30 min): 3.1 s
- Tail flick (%MPE) ([1]; 25 mg/kg, 30 min): 12.5 %MPE and -11.5 %MPE and 9.0 %MPE and 3.6 %MPE and 10.1 %MPE and 10.4 %MPE and 3.5 %MPE and 6.8 %MPE
- Tail flick latency ([1]; 25 mg/kg, 30 min): 3.0 secs and 2.8 secs and 3.4 secs (2×) and 3.3 secs and 3.1 secs (2×) and 3.2 secs
- %MPE ([1]; 25 mg/kg, 60 min): 6.34 %MPE
- Tail flick (%MPE), average ([1]; 25 mg/kg, 60 min): 6.0 %MPE
- Tail flick latency in secs, av ([1]; 25 mg/kg, 60 min): 3.2 s
- Tail flick (%MPE) ([1]; 25 mg/kg, 60 min): 7.5 %MPE and -7.7 %MPE and 10.3 %MPE and 2.1 %MPE and 12.2 %MPE and 22.1 %MPE and 0.7 %MPE (2×)
- Tail flick latency ([1]; 25 mg/kg, 60 min): 2.6 secs and 3.0 secs and 3.5 secs (2×) and 3.2 secs and 4.0 secs and 2.9 secs and 2.8 secs
- %MPE ([1]; 25 mg/kg, 150 min): 2.66 %MPE
- Tail flick (%MPE), average ([1]; 25 mg/kg, 150 min): -0.273 %MPE
- Tail flick latency in secs, av ([1]; 25 mg/kg, 150 min): 2.9 s
- Tail flick (%MPE) ([1]; 25 mg/kg, 150 min): -10.0 %MPE and 3.1 %MPE and 2.8 %MPE and -5.0 %MPE and 4.7 %MPE and 2.9 %MPE and -0.7 %MPE and 0.0 %MPE
- Tail flick latency ([1]; 25 mg/kg, 150 min): 2.3 secs and 3.7 secs and 3.0 secs and 2.6 secs and 2.9 secs (2×) and 3.3 secs and 2.5 secs

Compound: C[C@@H](NC(=O)[C@@H](N)Cc1ccc(O)cc1)C(=O)NCC(=O)N(C)[C@@H](Cc1ccccc1)C(=O)NCCO [DAMGO, [D-Ala^2, N-Me-Phe^4, Gly^5-ol]-enkephalin, reference compound]
- cAMP % ([2]; Log[drug] (M) -5): 102.015% and 97.5784% and 104.579% and 96.6295% and 98.3687% and 104.58% and 107.049% and 113.123% and 108.981%
- cAMP % ([2]; Log[drug] (M) -6): 105.759% and 89.6935% and 102.343% and 97.3213% and 106.448% and 102.195% and 98.7916% and 100.678% and 92.5396%
- cAMP % ([2]; Log[drug] (M) -7): 94.7459% and 89.7557% and 84.4404% and 103.092% and 95.8909% and 105.68% and 91.1195% and 91.3937% and 91.5037%
- cAMP % ([2]; Log[drug] (M) -8): 54.4279% and 44.3207% and 58.3553% and 86.2498% and 84.9633% and 88.7212% and 82.7217% and 81.9867% and 95.6687%
- cAMP % ([2]; Log[drug] (M) -9): 14.6461% and 18.37% and 18.8483% and 47.9% and 59.4105% and 56.9807% and 36.8388% and 43.8092% and 46.1925%
- cAMP % ([2]; Log[drug] (M) -10): 1.728% and 0.08907% and -1.817% and 16.1543% and 6.811% and 19.2753% and 3.3167% and 1.639% and 10.5208%
- cAMP % ([2]; Log[drug] (M) -11): 6.094% and 2.441% and 8.528% and 5.436% and 3.7044% and 1.349% and 1.812% and -1.084% and -0.7282%
- cAMP % [2, 5]: -0.3434% and 15.5805% and 1.417% and -1.196% and 0.717% and 0.4788% and 1.6944% and 5.324% and 4.584%
- cAMP % ([3]; Log[drug] (M) -5): 103.124% and 109.477% and 102.684% and 110.427% and 108.861% and 108.591% and 112.306% and 111.09%
- cAMP % ([3]; Log[drug] (M) -6): 98.2575% and 92.1607% and 109.669% and 106.978% and 96.9047% and 104.556% and 112.319% and 93.9893% and 98.3933%
- cAMP % ([3]; Log[drug] (M) -7): 84.826% and 103.003% and 98.5438% and 92.203% and 94.9009% and 88.7302% and 91.8158% and 88.9226% and 95.649%
- cAMP % ([3]; Log[drug] (M) -8): 90.1183% and 95.617% and 94.9621% and 80.7074% and 80.5991% and 79.7704% and 101.871%
- cAMP % ([3]; Log[drug] (M) -9): 83.2929% and 84.9251% and 85.9398% and 87.1639% and 70.6227% and 86.8862% and 70.8595%
- cAMP % ([3]; Log[drug] (M) -10): 23.9872% and 31.9271% and 31.1042% and 26.2749% and 20.3118% and 16.9632% and 5.794% and 13.2278% and 15.6275%
- cAMP % ([3]; Log[drug] (M) -11): 7.017% and -4.712% and 3.0598% and 13.9517% and -4.528% and 3.447% and 8.388% and -3.773% and -4.615%
- cAMP % [3, 5]: 1.163% and -6.717% and 5.554% and 6.145% and -10.7075% and 4.5627% and 2.101% and 2.953% and 0.8452%
- Nb33 BRET assay at mMOR, response ([4]; Log[drug] (M) -4): 116.548 and 99.0991 and 123.097 and 102.778 and 111.876 and 86.5818 and 91.4453 and 105.421 and 94.7199 and 96.8839 and 110.228 and 105.758 and 96.6672 and 105.453 and 97.0797 and 106.37 and 115.431 and 97.3489 and 102.87 and 112.822 and 97.3627
- Nb33 BRET assay at mMOR, response ([4]; Log[drug] (M) -5): 78.3004 and 105.49 and 93.3001 and 92.3549 and 96.5229 and 94.3135 and 107.346 and 108.338 and 93.8039 and 95.4962 and 95.2898 and 96.1807 and 98.423 and 95.5858 and 88.3338 and 114.596 and 90.0997 and 91.8485 and 91.211 and 101.524 and 97.9528
- Nb33 BRET assay at mMOR, response ([4]; Log[drug] (M) -8): 25.6157 and -0.9817 and 2.276 and 16.2956 and 7.2069 and 3.257 and 8.405 and 5.376 and 16.5535 and 18.8366 and 6.195 and 12.7572 and 5.664 and 5.763 and 13.2066 and 17.6481
- Nb33 BRET assay at mMOR, response ([4]; Log[drug] (M) -9): 2.545 and 18.2179 and 1.398 and 13.71 and 1.7362 and 12.589 and -5.813 and 7.089 and -10.8919 and 4.229 and 0.1289 and 0.7333 and 3.575 and -0.9155 and 34.3413 and 6.961 and -1.352 and 3.399 and 3.853 and 3.842 and 2.552
- Nb33 BRET assay at mMOR, response ([4]; Log[drug] (M) -10): 3.45 and -1.0779 and -15.1434 and 16.2214 and 5.631 and -0.462 and -5.169 and -3.138 and 4.714 and -1.576 and 1.587 and 11.4832 and -0.3739 and -1.213 and -14.9335 and -0.4874 and 0.03891 and 0.4485 and -4.142 and 2.431 and 1.7112

Compound: CN1CC[C@]23c4c5ccc(O)c4O[C@H]2[C@@H](O)C=C[C@H]3[C@H]1C5 [Morphine, morphine, reference compound]
- Tail flick (%MPE) ([1]; Fig 9b, Morphine 10 mg/kg): 32.79 %MPE and 42.86 %MPE and 100.00 %MPE (6×) and 61.73 %MPE and 52.00 %MPE
- Tail flick latency ([1]; Fig 9b, Morphine 10 mg/kg): 5.9 and 6 and 10 (6×) and 6.9 and 6.4
